# Data reported in patent US20230120597A1, “CO-AGONISTS AT GLP-1 AND GIP RECEPTORS SUITABLE FOR ORAL DELIVERY” (Novo Nordisk A/S, priority 2020, published 2023).
# Where two headings read alike, the source gives them in different places. Starred links: 1 amine or outer side, 2 acyl side, 3 side chain; linkers in the order of their positions; H or OH if unused. Non-standard residues stand in square brackets, D forms with d. Residues, ends and D or L forms follow the SMILES beside them. Groups on a side chain read outwards from the residue. *: point of attachment. C18 diacid = O=C(O)CCCCCCCCCCCCCCCCC(=O)*; γGlu = O=C(O)[C@H](CCC(=O)[*:2])N[*:1]; εLys = N[C@@H](CCCCN[*:1])C(=O)[*:2]; Aib = CC(C)(N)C(=O)O
# Target: T1, human GIP receptor (Homo sapiens, UniProt P48546)
# T1 construct: expressed in transfected cells; host or cells: BHK (parent line BHKTS13), clone BHK CRE luc2P hGIPR
# T1 sequence (P48546 22-466): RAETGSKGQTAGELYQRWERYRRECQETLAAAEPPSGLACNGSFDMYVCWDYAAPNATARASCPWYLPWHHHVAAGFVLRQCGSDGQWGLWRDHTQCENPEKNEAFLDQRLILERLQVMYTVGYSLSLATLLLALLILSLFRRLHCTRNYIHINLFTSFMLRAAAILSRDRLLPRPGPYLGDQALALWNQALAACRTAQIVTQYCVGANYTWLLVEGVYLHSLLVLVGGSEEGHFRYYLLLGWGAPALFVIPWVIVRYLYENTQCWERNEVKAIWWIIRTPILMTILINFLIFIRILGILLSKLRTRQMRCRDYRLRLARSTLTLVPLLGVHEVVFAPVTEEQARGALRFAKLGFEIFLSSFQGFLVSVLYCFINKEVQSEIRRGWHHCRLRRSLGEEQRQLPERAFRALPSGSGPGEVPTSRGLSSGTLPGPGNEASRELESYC
# Assay: In vitro functional potency, CRE luciferase reporter gene assay, whole BHK cells expressing hGIPR
# Format: cell-based
# Conditions: BHK CRE luc2P hGIPR cells
smiles,measurement,setting,value
CC[C@H](C)[C@H](NC(=O)[C@H](Cc1ccccc1)NC(=O)[C@H](CCC(=O)O)NC(=O)[C@H](CCCNC(=N)N)NC(=O)[C@H](C)NC(=O)[C@H](C)NC(=O)[C@H](CCC(N)=O)NC(=O)[C@H](CCCCNC(=O)[C@@H](N)CCCCNC(=O)[C@@H](N)CCCCNC(=O)CC[C@H](NC(=O)CCCCCCCCCCCCCCCCC(=O)O)C(=O)O)NC(=O)[C@H](CCC(=O)O)NC(=O)[C@H](CC(C)C)NC(=O)[C@H](CC(C)C)NC(=O)[C@@H](NC(=O)[C@H](CO)NC(=O)[C@H](Cc1ccc(O)cc1)NC(=O)[C@H](CC(=O)O)NC(=O)[C@H](CO)NC(=O)[C@@H](NC(=O)[C@H](Cc1ccccc1)NC(=O)[C@@H](NC(=O)CNC(=O)[C@H](CCC(=O)O)NC(=O)C(C)(C)NC(=O)[C@@H](N)Cc1ccc(O)cc1)[C@@H](C)O)[C@@H](C)O)[C@@H](C)CC)C(=O)N[C@@H](CC(N)=O)C(=O)N[C@@H](Cc1c[nH]c2ccccc12)C(=O)N[C@@H](CC(C)C)C(=O)N[C@@H](CC(C)C)C(=O)N[C@@H](C)C(=O)NCC(=O)NCC(=O)N1CCC[C@H]1C(=O)N[C@@H](CO)C(=O)N[C@@H](CO)C(=O)NCC(=O)N[C@@H](C)C(=O)N1CCC[C@H]1C(=O)N1CCC[C@H]1C(=O)N1CCC[C@H]1C(=O)N[C@@H](CO)C(=O)O [Compound No. 15] (H-Y[Aib]EGTFTSDYSILLEK([εLys-εLys-γGlu-C18 diacid])QAAREFINWLLAGGPSSGAPPPS-OH),EC50,"0% HSA, read-out: hGIPR, CRE Luc 0% HSA EC50",0.0071 nM
same,EC50,"hGIPR, CRE Luc 1% HSA EC50, 1% HSA",0.138 nM
